How the values were obtained:
[1] = tested on: Nfe2l2; experiment: Relative gene expression of Nfe2l2 in BMCs (qRT-PCR); type: cell-based, mouse; settings: 2 μM, 4 h
From the text: Primary bone marrow cells (BMCs) were isolated from 8–12-week-old male C57BL/6 mice (25–30 g, AnLab, Czech Republic). Mice were housed under standard conditions. BMCs were isolated as follows: The day before isolation, phosphate-buffered saline (PBS), ACK Lysis Buffer (A10492-01, Thermo Fisher Scientific), and Iscove’s Modified Dulbecco’s Medium (IMDM) (12440-053, Thermo Fisher Scientific) were placed in a hypoxic chamber (InvivO2 400, Baker Ruskinn, UK) with adjustable oxygen control to equilibrate for the target oxygen concentrations. On the day of the experiment, animals were euthanized using ketamine/xylazine, and bilateral femurs were extracted. […] After hemolysis at room temperature using hypoxic ACK Lysis Buffer, nucleated BMCs were washed with hypoxic PBS + 2% FBS and counted using a TC20 automated cell counter (Bio-Rad). […]
3 Expression of NRF2 and its target genes in response to NO2FA derivatives. BMCs were cultured under 4% or 1% oxygen conditions and treated for 4 h with the tested NO 2 FAs (2 μM) or medium followed by quantification of (A) Nfe2l2, (B) Hmox1, and (C) Gclm with PCR. […] Data are expressed as mean ± SD from 3 to 7 independent experiments (n = 3–7), analyzed with one-way ANOVA with Dunnett’s multiple comparisons test compared to the controls (*p < 0.05; **p < 0.01; ***p < 0.001).

[2] = tested on: Gclm; experiment: Relative gene expression of Gclm in BMCs (qRT-PCR); type: cell-based, mouse; settings: 2 μM, 4 h; for Gclm relative expression: 4% and 1% oxygen
From the text: (§1) Primary bone marrow cells (BMCs) were isolated from 8–12-week-old male C57BL/6 mice (25–30 g, AnLab, Czech Republic). Mice were housed under standard conditions. BMCs were isolated as follows: The day before isolation, phosphate-buffered saline (PBS), ACK Lysis Buffer (A10492-01, Thermo Fisher Scientific), and Iscove’s Modified Dulbecco’s Medium (IMDM) (12440-053, Thermo Fisher Scientific) were placed in a hypoxic chamber (InvivO2 400, Baker Ruskinn, UK) with adjustable oxygen control to equilibrate for the target oxygen concentrations. On the day of the experiment, animals were euthanized using ketamine/xylazine, and bilateral femurs were extracted. BMCs were flushed with hypoxic (1% O2 unless stated otherwise) PBS supplemented with 2% fetal bovine serum (FBS; low endotoxin, FB-1101/500, Biosera, France). After hemolysis at room temperature using hypoxic ACK Lysis Buffer, nucleated BMCs were washed with hypoxic PBS + 2% FBS and counted using a TC20 automated cell counter (Bio-Rad). Cells were kept under hypoxic conditions prior to treatment. The medium for BMC culture, consisting of IMDM with 2% FBS and 1% penicillin/streptomycin (LM-A4118/100, Biosera, France), was supplemented with 10 ng/mL mouse IL-3, 10 ng/mL mouse IL-6, and 50 ng/mL mouse stem cell factor - SCF (213-13, 216-16, and 250-03, respectively; all from PeproTech). Cells were cultured at 37 °C in a humidified atmosphere containing 5% CO2 and the specified oxygen concentrations (21%, 4%, or 1%).
For the relative gene expression of nuclear factor erythroid 2-related factor 2 (NRF2, encoded by Nfe2l2), heme oxygenase-1 (Hmox1), and Glutamate-Cysteine Ligase Modifier Subunit (Gclm) (Mm00477784_m1, Mm00516005_m1, Mm00514996_m1, all from Thermo Fisher Scientific), mouse BMC (3 × 10^6 cells) were cultivated on a 6-well plate in 1.5 mL of complete media (see Isolation and culture of primary cells), and then incubated with 2 μM NO2FAs or control (medium only) for 4 h at the specified oxygen levels (21%, 4%, or 1%). Then, the adherent and nonadherent cells were washed with PBS and lysed using a NucleoSpin RNA Plus kit (740984, Machery-Nagel; Germany). The concentration and purity of isolated RNA was assessed using an Infinite M200 Pro spectrophotometer (Tecan, Austria). Total RNA (0.2 μg) was reversely transcribed into first strand cDNA using a RevertAid First Strand cDNA Synthesis kit according to the manufacturer’s protocol (K1622, Thermo Fisher Scientific). qRT-PCR reactions were performed in a LightCycler480 instrument (Roche; Switzerland) using TaqMan FastAdvanced Master Mix for qPCR (4444557, Thermo Fisher Scientific) and the following program was used: uracil-N-glycosylase activation step at 50 °C for 2 min, an initial denaturation step at 95 °C for 2 min, followed by 45 cycles (95 °C for 3 s, 60 °C for 30 s), and a final cooling step at 40 °C for 1 min. Data were normalized to ribosomal protein L32 (Rpl32, Mm02528467_g1, Thermo Fisher Scientific) and presented as 2^–Δcq.
3 Expression of NRF2 and its target genes in response to NO2FA derivatives. BMCs were cultured under 4% or 1% oxygen conditions and treated for 4 h with the tested NO 2 FAs (2 μM) or medium followed by quantification of (A) Nfe2l2, (B) Hmox1, and (C) Gclm with PCR. Results are presented as relative expression across different oxygen culture conditions. Dimethyl fumarate (DMF) was added as a control. Data are expressed as mean ± SD from 3 to 7 independent experiments (n = 3–7), analyzed with one-way ANOVA with Dunnett’s multiple comparisons test compared to the controls (*p < 0.05; **p < 0.01; ***p < 0.001).
Relative expression of (A) Hmox1 and (B) Gclm in different oxygen […]
Figure S 2. Relative expression of (A) Hmox1 and (B) Gclm in different oxygen conditions. BMCs were cultured under varying oxygen conditions (21, 4, and 1%) and treated for 4 hours with the tested 10 -NO₂OA (2 µM) or medium followed by quantification […]
with PCR. […]

[3] = tested on: HO-1; experiment: HO-1 protein level in BMCs (Western blot); type: cell-based, mouse; settings: 2 μM, 4 h; for HO-1 increase at 1% oxygen relative to atmospheric conditions: 1% vs 21% oxygen
From the text: as §1
Briefly, 1.5 × 10^6 BMCs were placed in 0.2 mL of complete medium in 1.5 mL microtubes and incubated with 2 μM NO2FAs or the control (medium only) for 1 (NRF2), 4 (heme oxygenase-1, HO-1), or 7 (glutamate-cysteine ligase modifier subunit, GCLM) hours at the specified oxygen levels (21%, 4%, or 1%). Cells were then spun down and washed with PBS (from this step onward, cells were processed under atmospheric conditions). Next, cells were lysed in 60 μL RIPA buffer (89901, Thermo Fisher Scientific) containing protease and phosphatase inhibitors cocktail (78442, Thermo Fisher Scientific). Cell lysates were sonicated and centrifuged at 15,000g for 3 min at 4 °C, and 15 μL of lane marker (3900, Thermo Fisher Scientific) was added to the supernatants. Samples were boiled for 3 min at 95 °C. Equal volumes of lysates (15–45 μL/well) were loaded onto 7–15% SDS-polyacrylamide gels. Proteins were then transferred onto PVDF membranes (IPVH85R, EMD Millipore Corp.) and blocked with 5% nonfat dry milk in TBST. Membranes were incubated overnight at 4 °C with the following primary antibodies: anti-β-actin (1:1000; #3700, Cell Signaling Technology), antivinculin (1:10,000; #SAV9264, Sigma-Aldrich), anti-NRF2 (1:500; A308758, Lot 38410, Antibodies.com, UK), anti-HO-1 (1:1000; #43966, Cell Signaling Technology), antihistone H3 (1:2000; #4499, Cell Signaling Technology), or anti-GCLM (1:100; sc-55586, Santa Cruz Biotechnology). This was followed by incubation with corresponding HRP-linked secondary antibodies (antimouse IgG, #7076, 1:1000–5000; or antirabbit IgG, #7074, 1:1000–2000; both from Cell Signaling Technology) for 1 h at room temperature. Protein bands were visualized using an enhanced chemiluminescent substrate (SuperSignal 34577/34095, Thermo Fisher Scientific). The optical densities of detected proteins were measured using ImageJ v1.52 (NIH).
4 Expression of NRF2-target proteins HO-1 and GCLM. NO 2 FA derivatives upregulate the expression of NRF2-target proteins in mouse BMCs. BMCs were cultured under 21% or 1% oxygen conditions and treated with 2 μM of the tested NO 2 FAs for 4 h (A, B) or 7 h (C, D). HO-1 (A, B) and GCLM (C, D) expression in whole-cell lysates was subsequently analyzed. Results are presented as the fold change relative to control cells across different oxygen culture conditions. Data are expressed as mean ± SD from 3–5 independent experiments (n = 3–5). […]

[4] = tested on: NRF2; settings: colon cancer cell line, versus shorter or longer chain derivatives; literature; cited from earlier work

| SMILES | Nfe2l2 relative expression ([1]; 4% oxygen) | Gclm relative expression [2] | HO-1 increase at 1% oxygen relative to atmospheric conditions [3] | HO-1 protein level, fold change relative to control ([3]; 21% oxygen) | NRF2 induction [4] | HO-1 protein level, fold change relative to control ([3]; 1% oxygen) | Gclm expression at 1% oxygen compared to 21% ([2]; 1% vs 21% oxygen) | Nfe2l2 relative expression ([1]; 4% and 1% oxygen) |
| --- | --- | --- | --- | --- | --- | --- | --- | --- |
| CCCCCCCC/C=C(\CCCCCCCC(=O)O)[N+](=O)[O-] [9-NO2OA, (9E)-9-Nitro-oleic Acid] | significantly increased | significant upregulation | roughly 1.8 fold | significantly increased | induced NRF2 more robustly | – | – | – |
| CCCCCC/C=C/C=C(\CCCCCCCC(=O)O)[N+](=O)[O-] [9-NO2cLA, (9E,11E)-9-Nitro Conjugated Linoleic Acid] | – | upregulation that was dependent on oxygen levels | – | – | – | – | – | – |
| CCCCC/C=C\C/C(=C\CCCCCCCC(=O)O)[N+](=O)[O-] [10-NO2LA, (9E,12Z)-10-Nitro Linoleic Acid] | – | upregulation that was dependent on oxygen levels or specific target genes | – | – | – | only increased HO-1 under hypoxic conditions | – | – |
| CCCCCCCC/C(=C\CCCCCCCC(=O)O)[N+](=O)[O-] [10-NO2OA, (9E)-10-Nitro-oleic Acid] | – | significant upregulation | ~2.2 fold | significantly increased | – | – | not observed | – |
| CCCCCCCCC(CCCCCCCCC(=O)O)[N+](=O)[O-] (stereo not shown) [10-NO2SA, 10-Nitro Stearic acid] | – | no effects | – | no significant effects | – | no significant effects | – | no effects |

Source: PMC12169669, “Regio- and Stereoselective Synthesis of Nitro-fatty Acids as NRF2 Pathway Activators Working under Ambient or Hypoxic Conditions” (Journal of Medicinal Chemistry, 2025)
